Several values for one entry are separate records, joined by “and”; a condition that tells them apart may be missing. Equal entries are not always repeated.

The subject of data set [1] is [3H]-ADMA transport across the blood-brain and blood-CSF barriers. Briefly: self-inhibition, in situ perfusion: [^3H]-ADMA with 100 μM unlabelled ADMA. The data set is classed as in vivo, mouse. The settings on record: male, Balb/c, mouse, other: in situ brain perfusion, with unlabelled ADMA 100 µM, [3H] ADMA + [14C] Sucrose + 100uM un-labelled ADMA, 10 mins, Balb/c ♂, 5ml/min, mean. As to the method: (§1) Self-inhibition experiments were also performed. […] Cross-competition experiments were also performed.
(§2) The percentage change in the RTissue uptake values achieved in the absence or presence of an unlabelled inhibitor can be calculated by means of Eq 4.
(§3) %change=RTissue−RInhibition/RTissue×100 Eq 4
(§4) We define RInhibition as the RTissue uptake in the presence of an inhibitor in the artificial plasma.
(§5) A decrease in the uptake of radiolabelled solute in the presence of unlabelled inhibitor is indicative of a saturable influx transport system. Conversely, an increase in the uptake of radiolabelled solute in the presence of unlabelled inhibitor is indicative of a saturable efflux transport system.

The nature of data set [2]: cross-inhibition, in situ perfusion: [^3H]-ADMA with 100 μM unlabelled L-arginine. The data set is classed as in vivo, mouse. Conditions: male, Balb/c, mouse, brain homogenate, other: in situ brain perfusion, with 100 µM unlabelled L-arginine, [3H] ADMA + [14C] Sucrose + 100uM Arg, 10 mins, Balb/c ♂, 5ml/min; mean; read-out: uptake, homogenate. As to the method:
as §1, §2, §3, §4, §5

Data set [3] deals with [3H]-ADMA transport across the blood-brain and blood-CSF barriers. Described as above. The data set is classed as in vivo, mouse. Conditions: male, Balb/c, mouse, other: in situ brain perfusion, with 100 µM unlabelled L-arginine, [3H] ADMA + [14C] Sucrose + 100uM Arg, 10 mins, Balb/c ♂, 5ml/min. As to the method:
as §1, §2, §3, §4, §5

Data set [4] has as its system [^3H]-ADMA transport across the blood-brain and blood-CSF barriers. The description is as above. The data set is classed as in vivo, mouse. The settings on record: [3H] ADMA + [14C] Sucrose + 100uM Arg, 10 mins, Balb/c ♂, 5ml/min; individual mice. The protocol:
as §1, §2, §3, §4, §5

Data set [5] is described as follows: in situ brain/choroid plexus perfusion: CNS uptake of [^3H]-arginine, [^3H]-ADMA and [^14C]-sucrose (multiple-time and single-time uptake analysis). Conditions: for Kp at 30 min / Kp at 20 min: male, BALB/c, mouse, in vivo; for Kp at 20 min: tissue or CSF to plasma ratio (mean), uncorrected, given as fraction.
Experimental: All animals used in procedures were adult male BALB/c mice (between 23 g and 25 g) sourced from Harlan Laboratories, Oxon, UK, unless otherwise stated.
Animals were weighed immediately before the administration of the anaesthetic to ensure correct dosage. Domitor® (medetomidine hydrochloride) and Vetalar® (ketamine) were both purchased from Harlan Laboratories (Cambridge, UK). All animals were terminally anaesthetised (2 mg/kg Domitor® and 150 mg/kg Vetalar® injected intraperitoneally), and a lack of self-righting and paw-withdrawal reflexes (as surrogate indicators of consciousness) thoroughly checked prior to and during all procedures. If needed, additional anaesthetic was administered via the same route. […] At the end of the in situ brain perfusion procedure the animal was killed by decapitated under non-recovery anaesthesia. Animals were heparinised with 100 units heparin (in 0.9% m/v NaCl(aq), Harlan Laboratories; Oxon, UK), administered via the intraperitoneal route prior to surgery.
The in situ brain/choroid plexus perfusion method is designed to directly perfuse the brain with artificial plasma via a cannula placed in the heart. Artificial plasma is prepared to mimic the ionic composition of blood, and transporter inhibitors can be added in known concentrations and delivered to the brain for defined periods of time.
The left ventricle of the heart was cannulated with a 25G x 10 mm butterfly-winged needle connected to the perfusion circuit. […] The right atrium of the heart was sectioned to allow outflow of the artificial plasma. […] Radiolabelled and unlabelled test molecules were infused into the inflowing artificial plasma for periods up to 30 minutes.
At the set perfusion time a CSF sample was taken by inserting a pulled glass micropipette connected to silicon tubing and a syringe into the cisterna magna. Gentle suction was applied, and CSF was withdrawn. Only clear CSF samples were processed and taken for analysis. Samples contaminated with blood were discarded. The animal was then decapitated and the brain removed. Specific brain samples including the circumventricular organs (CVOs) were taken using a Leica S4E L2 stereomicroscope (Leica; Buckinghamshire, UK). The brain samples included the frontal cortex, caudate nucleus, occipital cortex, hippocampus, hypothalamus, thalamus, pons and cerebellum. The CVOs included the choroid plexus, pituitary gland and pineal gland.
All samples (brain regions, capillary depletion brain homogenate, pellet and supernatant, CVOs, CSF and plasma samples) were solubilised in 0.5 mL tissue solubiliser (Solvable; Perkin-Elmer; Boston, MA, USA). After incubating the samples at room temperature for 48 h, 4 mL scintillation fluid (Lumasafe®; Perkin-Elmer; Boston, MA, USA) was added to each before vigorous vortexing.

As for `OC[C@H]1O[C@@](CO)(O[C@H]2O[C@H](CO)[C@@H](O)[C@H](O)[C@H]2O)[C@@H](O)[C@@H]1O` [[^14C]-sucrose, reference compound], the Kp at 10 min, 62.5 nM in data set [1] (CSF, read-out: uptake into CSF) was 0.138; in data set [1] (pituitary gland, read-out: uptake into pituitary gland), 0.0955; in data set [2], 0.0365; in data set [3] (choroid plexus, individual mice, read-out: uptake into choroid plexus), 0.14; in data set [3] (choroid plexus, mean, read-out: uptake into choroid plexus), 0.145; in data set [3] (hypothalamus, mean, read-out: uptake into hypothalamus), 0.0327. The Kp at 10 min, 62.5 nM in data set [3] (pituitary gland, mean, read-out: uptake into pituitary gland) worked out at 0.113; in data set [3] (pons, mean, read-out: uptake into pons) it was 0.0462. The “uptake, pellet” value in data set [4] came out at 0.001402. In data set [5] (30 mins, Balb/c ♂, 5ml/min, single mouse), the “pineal gland: [14C] Sucrose” value is 0.7704 and 1.659 and 1.346. In addition, the Kp at 30 min in data set [5] (caudate nucleus: [14C] Sucrose, 30 mins, Balb/c ♂, 5ml/min, mean) came out at 0.0778; in data set [5] (cerebellum: [14C] Sucrose, 30 mins, Balb/c ♂, 5ml/min, mean) it was 0.059; in data set [5] (cerebellum: [14C] Sucrose, 30 mins, Balb/c ♂, 5ml/min, single mouse) it was 0.0613; in data set [5] (pineal gland: [14C] Sucrose, 30 mins, Balb/c ♂, 5ml/min, mean), 1.05; in data set [5] (pons: [14C] Sucrose, 30 mins, Balb/c ♂, 5ml/min, mean), 0.124; in data set [5] (thalamus: [14C] Sucrose, 30 mins, Balb/c ♂, 5ml/min, mean) it was 0.0965. Besides, the Kp at 20 min in data set [5] (caudate nucleus) came out at 0.0663; in data set [5] (cerebellum) it was 0.0456; in data set [5] (frontal cortex), 0.0797; in data set [5] (hippocampus), 0.0477; in data set [5] (hypothalamus) it was 0.0657; in data set [5] (pineal gland), 0.524. Moreover, the figures for the Kp at 20 min in data set [5] (pons) and in data set [5] (thalamus) were 0.118 and 0.0672, respectively.
